{
  "source": "patent US7367941B2",
  "about": "“Detection and characterization of cholinergic oscillatory control in peripheral microvasculature” (Yale University, priority 2000, dated 2008)",
  "type_in_all_cases": "in vivo, human",
  "key": {"[1]": {"test_system": "forehead microvasculature", "assay": "Laser Doppler flowmetry of forehead flux, spectral- and time-domain analysis, during phenylephrine challenge and added atropine", "conditions": "for beat-to-beat % change of forehead flux: p<0.05; for flux at the forehead: mean (SE)", "description": "(§1) With IRB approval, 15 healthy nonsmoking male volunteers were instructed to refrain from caffeine and other known vasoactive compounds for at least 24 hours prior and then lie recumbent in a temperature-regulated room (70±1° F.). Surface electrodes were applied for monitoring ECG and respiration, a noninvasive BP cuff was placed over the brachial artery of one arm, and a 22 gauge intravenous catheter was placed in the opposite arm. In the first eight subjects, laser Doppler flowmetry probes (Periflux 2B, Perimed, Sweden) then were applied to the skin via double-stick tape on the forehead and on the finger contralateral to the BP cuff. In the remaining seven subjects, the sites of laser Doppler monitoring were modified and additional monitors were applied (see Example 3).\n(§2) The ECG, respiration, and laser Doppler flux were recorded at 250 Hz with a microprocessor-based system which consisted of analog to digital converters, commercially available data acquisition and waveform analysis software (SnapMaster, HEM Data Corp.) and customized software for beat detection. Each R-wave was identified using the recommended combination of derivative plus threshold detection of the fiducial point of the data sampled at 250 Hz (Task Force of the European Society of Cardiology and the North American Society of Pacing and Electrophysiology: Heart rate variability. Standards of measurement, physiological interpretation, and clinical use. Circulation 1996;93:1043-1065). Ectopic beats were to be replaced with an interpolated value, but none were noted. BP was recorded at 2-5 min intervals.\n(§3) Following 5 min of baseline (BASE) monitoring during spontaneous ventilation BASESPONT), each subject breathed in synchrony with an audible metronome at a rate of 12 breaths/min (BASEMETRO); each segment lasted 5 min (of which the middle 200 sec were used for subsequent analysis). Subjects then received an infusion of phenylephrine, which was titrated until there was >25% decline in finger flow for 10 min. […] Five minutes of data during this PHENYL phase were recorded during SPONT and during METRO (PHENYLSPONT and PHENYLMETRO). Atropine was then administered IV in 0.25-0.50 mg increments until HR was at least 33% above PHENYL. Measurements during this PH+ATR phase were recorded for 5 min during each of the two respiratory patterns (PH+ATRSPONT and PH+ATRMETRO). The phenylephrine then was discontinued. The values from all subjects were averaged to provide the overall means±standard error (SE) for the sampling periods that are summarized in the FIGS. 5-8.\n(§4) The frequency and power of the oscillations of the R-R intervals and laser Doppler flux values (flux) were characterized by frequency-domain analysis. As described in the prior art (Task Force of the European Society of Cardiology, 1996), the “R-R tachogram” and laser Doppler signal were resampled at 5 Hz, a rate more than sufficient to enable identification of oscillatory frequencies within the frequency range of interest (according to Nyquist's theorem and recent Task Force recommendations (see Task Force of the European Society of Cardiology, 1996)). An APSD was then generated for the R-R interval [APSDR-R (msec^2/Hz vs. Hz)], for the laser Doppler signal taken at the forehead [APSDFOREHEAD FLUX (mVolt^2/Hz vs. Hz)], and for the laser Doppler signal taken at the finger [APSDFINGER (mvolt^2/Hz vs. Hz)] in each subject using a traditional (Parzan) window. For each APSD, 200 sec of data were resampled at 5 Hz, providing a spectral resolution of 0.005 Hz (5 cycles per sec/1,000 data points); the mean value of the signal was subtracted from the data to eliminate its influence on the APSD. For purposes of presentation, each pair of adjacent 0.005 Hz bins was summated to provide bins with a width of 0.01 Hz. […]"}, "[2]": {"test_system": "R-R intervals of the electrocardiogram", "assay": "ECG R-R interval variability (APSDR-R, time-domain indices), HR and BP during phenylephrine and added atropine", "conditions": "for effect on BP and HR (R-R interval): spontaneous and metronome breathing", "description": "as §1, §2, §3, §4"}, "[3]": {"test_system": "finger microvasculature", "assay": "Laser Doppler flowmetry of finger flux during phenylephrine infusion", "description": "as §1, with “In the remaining seven subjects, the sites of laser Doppler monitoring were modified and additional monitors were applied (see Example 3).” left out\nThe ECG, respiration, and laser Doppler flux were recorded at 250 Hz with a microprocessor-based system which consisted of analog to digital converters, commercially available data acquisition and waveform analysis software (SnapMaster, HEM Data Corp.) and customized software for beat detection. […] BP was recorded at 2-5 min intervals.\nFollowing 5 min of baseline (BASE) monitoring during spontaneous ventilation BASESPONT), each subject breathed in synchrony with an audible metronome at a rate of 12 breaths/min (BASEMETRO); each segment lasted 5 min (of which the middle 200 sec were used for subsequent analysis). […] Five minutes of data during this PHENYL phase were recorded during SPONT and during METRO (PHENYLSPONT and PHENYLMETRO). […]"}, "[4]": {"test_system": "forehead flux and R-R oscillations", "assay": "Cross power spectral density of forehead flux and R-R after normalization to mean", "conditions": "PHENYL", "description": "FIGS. 11A-D are a graphical comparison of normalized data in the time and frequency-domains, in accordance with the present invention. The signals were normalized prior to time and frequency domain analysis, as follows: (1) LDF flow data was resampled at 5 Hz (data from FIG. 5); (2) mean flow data for the entire study segment (i.e., 5.33522) was determined; and (3) the normalized values were obtained by dividing each resampled value by the corresponding mean value for the study segment. Normalization facilitates visual inspection as well as time-domain and spectral-domain comparisons of the oscillatory signal(s) to values under different circumstances (e.g. baseline vs. challenge state) or to the values of another parameter. Although the values in FIG. 11 were normalized to the mean, it may be preferable in some settings to normalize to the median since this is less affected by outliers. […] The CPSD is calculated by determining the normalized power of a signal from the instantaneous amplitude-spectrum using the following equation: Gab=ave(SaSb*)/df where Gab=instantaneous amplitude spectral density of the sampling channels; Sa=instantaneous amplitude spectrum of channel a; Sb*=complex conjugate of Sb; df=frequency resolution. […]"}, "[5]": {"test_system": "forehead microvasculature", "assay": "Laser Doppler flowmetry of forehead flux, spectral- and time-domain analysis, during phenylephrine challenge and added atropine"}},
  "data": [
    {"molecule": "CN1[C@@H]2CC[C@H]1C[C@@H](OC(=O)C(CO)c1ccccc1)C2", "note": "(some centres unmarked) [atropine]", "values": [
      {"measurement": "effect on maxbin power of APSDFOREHEADFLUX", "setting": "[1]; atropine IV added to phenylephrine infusion (PH+ATR), METRO, p=NS vs BASE", "result": "reduced power in the maxbin to near-BASE"},
      {"measurement": "effect on phenylephrine-induced HF forehead oscillatory signal", "setting": "[1]; atropine added to phenylephrine", "result": "nearly eliminated"},
      {"measurement": "effect on power in the max bin of APSDR-R", "setting": "[2]; atropine added to phenylephrine, SPONT and METRO", "result": "decrease significantly below BASE values"},
      {"measurement": "effect on BP and HR (R-R interval)", "setting": "[2]", "result": "exacerbated the increase in BP and reversed the prolongation of the R-R interval"}
    ]},
    {"molecule": "CNC[C@H](O)c1cccc(O)c1", "note": "[phenylephrine]", "values": [
      {"measurement": "Power/bin of the APSDFOREHEADFLUX", "setting": "[1]; METRO, PHENYL, BASE 1.3(0.5), p=0.0005", "result": "6.5(2.2) mvolt^2/Hz"},
      {"measurement": "beat-to-beat % change of forehead flux", "setting": "[1]; METRO, PHENYL, BASE 4.9 (1.1)%", "result": "11.9 (2.3) %"},
      {"measurement": "Maxbin power of APSDFOREHEADFLUX", "setting": "[1]; METRO, PHENYL, BASE 10.2(5.5), p=0.0003", "result": "101.7(39.7) mvolt^2/Hz"},
      {"measurement": "normalized maxbin power of APSDFOREHEADFLUX, % of average power/bin at BASE", "setting": "[1]; PHENYLMETRO", "result": "7,304(1,630) %"},
      {"measurement": "flux at the forehead", "setting": "[1]; PHENYLMETRO, p>0.4 vs BASE 2.1 (0.5)", "result": "2.3 (0.6) volts"},
      {"measurement": "frequency of atropine-sensitive peak in APSDFOREHEADFLUX", "setting": "[1]; PHENYLSPONT", "result": "0.14±0.02", "unit": "Hz"},
      {"measurement": "normalized maxbin power of APSDFOREHEADFLUX, % of average power/bin at BASE", "setting": "[1]; PHENYLSPONT", "result": "8,061(4,550) %"},
      {"measurement": "flux at the forehead", "setting": "[1]; PHENYLSPONT, p>0.3 vs BASE 2.1 (0.5)", "result": "1.5 (0.6) volts"},
      {"measurement": "beat-to-beat % change of forehead flux", "setting": "[1]; SPONT, PHENYL, BASE 3.4 (0.3)%", "result": "10.7 (2.2) %"},
      {"measurement": "frequency of maxbin / oscillatory peak in APSDFOREHEADFLUX", "setting": "[1]; phenylephrine infusion, METRO (0.20 Hz breathing)", "result": "0.14±0.02", "unit": "Hz"},
      {"measurement": "atropine-sensitive oscillations in the finger", "setting": "[3]; phenylephrine infusion", "result": "did not induce atropine-sensitive oscillations in the finger"},
      {"measurement": "Finger flux decline", "setting": "[3]; phenylephrine infusion 0.4-0.6 μg/kg/min, both METRO and SPONT, p<0.05", "result": "approximately 50%"},
      {"measurement": "power/bin for each of the 26 bins in the APSDR-R", "setting": "[2]; METRO, PHENYL, BASE 475.4 (111.7)", "result": "393.8 (100.9) msec^2/Hz"},
      {"measurement": "normalized power of the max bin (0.2 Hz) of APSDR-R", "setting": "[2]; METRO, PHENYL, BASE 799.7 (138.2)%", "result": "1050.0 (205.8) %"},
      {"measurement": "power of the max bin of the RF band of APSDR-R", "setting": "[2]; METRO, PHENYL, BASE 4,354 (1556.0)", "result": "4060.2 (996.2) msec^2/Hz"},
      {"measurement": "beat-to-beat % change of R-R", "setting": "[2]; metronome breathing, PHENYL, BASE 4.3 (0.6)%, p=0.2", "result": "5.6 (0.7) %"},
      {"measurement": "effect on BP and HR (R-R interval)", "setting": "[2]", "result": "increase in BP and slowing of HR"},
      {"measurement": "beat-to-beat % change of R-R", "setting": "[2]; spontaneous breathing, PHENYL, BASE 3.2 (0.4)%, p=ns", "result": "3.7 (0.4) %"},
      {"measurement": "degree to which maxbin in IF band of CPSDFLUX&R-R reflected power in maxbin of APSDFOREHEADFLUX/mean", "setting": "[4]; BASE 32.3±10.7%, p=0.004", "result": "7.0±1.8", "unit": "%"},
      {"measurement": "relative degree to which maxbin in IF band of APSDR-R/mean reflected power in maxbin of CPSDFLUX&R-R", "setting": "[4]; BASE 33.6±11.0%, p=0.002", "result": "7.3±1.8", "unit": "%"},
      {"measurement": "maxbin frequency of the APSDFOREHEAD FLUX", "setting": "[5]; one subject, phenylephrine infusion, continuous intra-arterial monitoring", "result": 0.13, "unit": "Hz"},
      {"measurement": "frequency at which forehead oscillations increased", "setting": "[5]; two subjects, phenylephrine bolus", "result": "approximately 0.13 Hz"}
    ]}
  ]
}
